# Results reported in ChEMBL document CHEMBL2057110, “Investigation of the interaction between amodiaquine and human serum albumin by fluorescence spectroscopy and molecular modeling” (Eur J Med Chem, 2012).
# How the values were obtained:
# Format in all cases: ADME
# Settings in all cases: isolated protein
# Albumin [1] = biological target: T1, Albumin (Homo sapiens, UniProt P02768); assay: Binding affinity to human serum albumin assessed as modified Stern-Volmer association constant at pH 7.4 and 291K by spectrofluorimetry in presence of warfarin
# T1 sequence (P02768 whole entry): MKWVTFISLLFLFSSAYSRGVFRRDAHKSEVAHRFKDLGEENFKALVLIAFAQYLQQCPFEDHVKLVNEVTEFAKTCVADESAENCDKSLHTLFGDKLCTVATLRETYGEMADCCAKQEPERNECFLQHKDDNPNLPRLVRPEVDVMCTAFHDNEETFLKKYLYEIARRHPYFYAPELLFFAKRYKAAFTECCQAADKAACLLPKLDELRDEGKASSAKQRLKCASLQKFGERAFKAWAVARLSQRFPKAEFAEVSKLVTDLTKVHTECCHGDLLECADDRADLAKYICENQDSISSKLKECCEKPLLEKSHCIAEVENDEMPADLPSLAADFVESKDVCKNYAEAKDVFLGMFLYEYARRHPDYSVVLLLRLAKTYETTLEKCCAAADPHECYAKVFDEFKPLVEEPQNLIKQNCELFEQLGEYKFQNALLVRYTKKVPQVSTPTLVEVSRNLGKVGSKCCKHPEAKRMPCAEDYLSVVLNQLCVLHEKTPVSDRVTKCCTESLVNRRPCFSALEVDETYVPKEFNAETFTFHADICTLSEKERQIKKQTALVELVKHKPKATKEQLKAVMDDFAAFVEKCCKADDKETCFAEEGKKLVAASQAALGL
# Albumin [2] = biological target: T1, Albumin; assay: Apparent binding affinity to human serum albumin at pH 7.4 and 310K by spectrofluorimetrysis
# Albumin [3] = biological target: T1, Albumin; assay: Binding affinity to human serum albumin assessed as Stern-Volmer association constant at pH 7.4 and 301K by spectrofluorimetry
# Albumin [4] = biological target: T1, Albumin; assay: Apparent binding affinity to human serum albumin at pH 7.4 and 301K by spectrofluorimetry
# Albumin [5] = biological target: T1, Albumin; assay: Binding affinity to human serum albumin assessed as modified Stern-Volmer association constant at pH 7.4 and 291K by spectrofluorimetry in presence of ibuprofen
# Albumin [6] = biological target: T1, Albumin; assay: Binding affinity to human serum albumin assessed as modified Stern-Volmer association constant at pH 7.4 and 310K by spectrofluorimetry
# Albumin [7] = biological target: T1, Albumin; assay: Binding affinity to human serum albumin assessed as Stern-Volmer association constant at pH 7.4 and 310K by spectrofluorimetry
# Albumin [8] = biological target: T1, Albumin; assay: Apparent binding affinity to human serum albumin at pH 7.4 and 291K by spectrofluorimetry
# Albumin [9] = biological target: T1, Albumin; assay: Binding affinity to human serum albumin assessed as Stern-Volmer association constant at pH 7.4 and 291K by spectrofluorimetry
compound,measurement,setting,value
CCN(CC)Cc1cc(Nc2ccnc3cc(Cl)ccc23)ccc1O.Cl,Ka,Albumin [1],73100 M⁻¹
same,Kb,Albumin [2],67300 M⁻¹
same,KSV,Albumin [3],56200 M⁻¹
same,Kb,Albumin [4],48600 M⁻¹
same,Ka,Albumin [5],114000 M⁻¹
same,Ka,Albumin [6],45900 M⁻¹
same,KSV,Albumin [7],48400 M⁻¹
same,Kb,Albumin [8],35000 M⁻¹
same,KSV,Albumin [9],76600 M⁻¹
